± gives the expanded uncertainty stated by the source.
Assays:
[1] = Liquid, Ebulliometric method (Recirculating still)
[2] = Boiling temperature at pressure P; details: Liquid, Ebulliometric method (Recirculating still)

Cc1cccc(C)c1O [2,6-dimethylphenol]
vapor or sublimation pressure ([1]; 418.11 K): 20 ± 0.2 kPa | Boiling temperature at pressure P ([2]; 6.7 kPa): 116.91 ± 0.54 °C | Boiling temperature at pressure P ([2]; 8.87 kPa): 122.99 ± 0.52 °C | Boiling temperature at pressure P ([2]; 10.89 kPa): 128.28 ± 0.47 °C | Boiling temperature at pressure P ([2]; 12.74 kPa): 132.49 ± 0.41 °C | Boiling temperature at pressure P ([2]; 14.98 kPa): 136.82 ± 0.37 °C | Boiling temperature at pressure P ([2]; 16.8 kPa): 140.18 ± 0.34 °C | Boiling temperature at pressure P ([2]; 18.91 kPa): 143.50 ± 0.3 °C | Boiling temperature at pressure P ([2]; 20 kPa): 144.96 ± 0.27 °C | Boiling temperature at pressure P ([2]; 21.02 kPa): 146.28 ± 0.28 °C | Boiling temperature at pressure P ([2]; 22.83 kPa): 148.86 ± 0.29 °C | Boiling temperature at pressure P ([2]; 33.02 kPa): 163.40 ± 0.28 °C | Boiling temperature at pressure P ([2]; 35.64 kPa): 165.8 ± 0.2 °C

Cc1ccccc1O [2-methylphenol]
vapor or sublimation pressure ([1]; 411.26 K): 20 ± 0.2 kPa | Boiling temperature at pressure P ([2]; 20 kPa): 138.11 ± 0.17 °C

Cc1cccc(O)c1 [3-methylphenol]
vapor or sublimation pressure ([1]; 422.16 K): 20 ± 0.2 kPa | vapor or sublimation pressure ([1]; 422.28 K): 20 ± 0.2 kPa | Boiling temperature at pressure P ([2]; 9.29 kPa): 129.09 ± 0.46 °C | Boiling temperature at pressure P ([2]; 11.93 kPa): 135.40 ± 0.41 °C | Boiling temperature at pressure P ([2]; 14.57 kPa): 140.24 ± 0.37 °C | Boiling temperature at pressure P ([2]; 16.68 kPa): 144.32 ± 0.34 °C | Boiling temperature at pressure P ([2]; 18.79 kPa): 147.39 ± 0.29 °C | Boiling temperature at pressure P ([2]; 20 kPa): 149.01 ± 0.29 °C | Boiling temperature at pressure P ([2]; 20.91 kPa): 150.40 ± 0.26 °C | Boiling temperature at pressure P ([2]; 23.02 kPa): 152.89 ± 0.25 °C | Boiling temperature at pressure P ([2]; 25.13 kPa): 155.41 ± 0.25 °C
